Experimental data: ChEMBL document CHEMBL3352587
The source made the active and inactive calls. No cut-off for these calls is given here.

These molecules were tested on Trypanosoma cruzi (assay: Inhibition of recombinant Trypanosoma cruzi trans-sialidase catalytic N-terminal domain preincubated at 1 mM for 10 mins by continuous fluorimetric assay).

Row | inhibition | Compound
1 | inactive | COC(=O)c1ccc(O[C@@H]2O[C@H](CO)[C@H](O)[C@H](OCC(=O)OC(C)(C)C)[C@H]2O)c([N+](=O)[O-])c1
2 | 68% | Cc1ncc(COP(=O)(O)O)c(C=O)c1O
3 | 16% | COC(=O)c1ccc(O[C@@H]2O[C@H](CO)[C@H](O)[C@H](OC)[C@H]2O)c([N+](=O)[O-])c1
4 | inactive | COC(=O)c1ccc(O[C@@H]2O[C@H](CO)[C@H](O)[C@H](OCC#N)[C@H]2O)c([N+](=O)[O-])c1
5 | 11% | COC(=O)c1ccc(O[C@@H]2O[C@H](CO)[C@H](O)[C@H](O)[C@H]2O)cc1
6 | 16% | COC(=O)c1ccc(O[C@@H]2O[C@H](CO)[C@H](O)[C@H](O)[C@H]2O)c([N+](=O)[O-])c1
7 | inactive | COC(=O)c1ccc(O[C@@H]2O[C@H](CO)[C@H](O)[C@H](OCC(=O)O)[C@H]2O)cc1
8 | 7% | COC(=O)c1ccc(O[C@@H]2O[C@H](CO)[C@H](O)[C@H](OC)[C@H]2O)cc1
9 | 13% | CCCCCCCCO[C@@H]1O[C@H](CO)[C@H](O)[C@H](OC)[C@H]1O
10 | 18% | COC(=O)c1ccc(O[C@@H]2O[C@H](CO)[C@H](O)[C@H](OCc3nnn[nH]3)[C@H]2O)c([N+](=O)[O-])c1
11 | inactive | COC(=O)c1ccc(O[C@@H]2O[C@H](CO)[C@H](O)[C@H](OCc3nnn[nH]3)[C@H]2O)cc1
12 | inactive | COC(=O)c1ccc(O[C@@H]2O[C@H](CO)[C@H](O)[C@H](OCC(=O)OC(C)(C)C)[C@H]2O)cc1
13 | 7% | COC(=O)c1ccc(O[C@@H]2O[C@H](CO)[C@H](O)[C@H](OCC#N)[C@H]2O)cc1
14 | 21% | COC(=O)c1ccc(O[C@@H]2O[C@H](CO)[C@H](O)[C@H](OCC(=O)O)[C@H]2O)c([N+](=O)[O-])c1
